Tests used:
TIMP1 promoter = TIMP1 promoter luciferase activity in transfected activated HSC; type: cell-based; conditions: SFZ 1 mM, 3a 0.150 mM, 3e 0.127 mM, 3f 0.089 mM, 24 hours, rat HSC
Experimental: For HSC transfections, activated HSC were transfected by the non-liposomal Effectene protocol (Qiagen, UK) using 1 μg reporter plasmid DNA and 10 ng of control Renilla plasmid pRLTK (Promega, Southampton, UK) according to the manufacturer's instructions. After 24 hours, HSC were treated with test compounds for a further 24 hours. Luciferase assays were performed using a dual luciferase kit (Promega) according to the manufacturer's instructions. Firefly luciferase activities were normalised for differences in transfection efficiency by measurement of the activity of the co-transfected pRLTK. The pIκBα wt-Luc plasmid contains nucleotides −332 to +35 of the human IkB-α promoter cloned upstream of luciferase gene (Oakley F, et al, J Biol Chem 2003; 278: 24359-70). The pTIMP1-Luc plasmid contains the 162 bp human TIMP1 minimal promoter cloned upstream of luciferase gene (Bertrand-Philippe M, et al. J Biol Chem 2004; 279: 24530-9). The pAP1-Luc plasmid (Stratagene, UK) contains 7 copies of a consensus AP-1 binding site upstream of the minimal promoter and the luciferase gene.
To extend these findings, further analyses were performed using the […] promoter which contains multiple NF-kB binding sites and is a well studied NF-kB target. […] Consistent with the presence of activated NF-kB in HSC, (Wright M C et al, Gastroenterology 2001; 121: 685-98.) the IkB-α promoter was activated in HSC (FIG. 2a). SFZ (1 mM) inhibited promoter activity by >60%. […] Therefore, the improved inhibitory activity of analogues 3a, 3e and 3f is specific for NF-kB mediated transcription and is not restricted to U937 cells or artificial promoter constructs.
Rat HSC were transfected with (A) IkB-α-Luc, (B) TIMP1-Luc or (C) pAP-1-Luc reporter constructs. After 24 hours, cells were treated with sulfasalazine (1 mM), 3a (0.150 mM), 3e (0.127 mM), 3f (0.089 mM), or treated with DMSO as a control. Luciferase activity was determined after another 24 hours. Data presented are mean luciferase activity (±SEM) relative to control cells (value set to 100), derived from two separate experiments, each performed in duplicate and using an independent preparation of HSC.

NF-kB = NF-kB luciferase reporter activity in LPS-stimulated U937-kBluc cells; type: cell-based, human; conditions: for IC50: Homo sapiens, U937-kBluc cells, LPS 0.3 μg/ml, 6 hours, mean of duplicate determinations ±SD, read-out: IC50 for inhibition of LPS-induced NF-kB activity
Experimental: U937-kBluc cells were cultured in a 96 well plate (2×10^4 cells in 100 μl in each well) and stimulated with 0.3 μg/ml LPS (lipopolysaccaride; Sigma Aldrich). After 6 hours, cells were collected and luciferase activity determined using the luclite reagent (Perkin Elmer UK, Beaconsfield, UK) and a Packard TopCount (Perkin Elmer), as described by the manufacturer. To determine the effect of SFZ and analogues, various concentrations of each compound or an equivalent amount of DMSO as a solvent control were added 1 hour prior to addition of LPS. Each determination was made in triplicate. A cell line containing an NF-kB reporter construct was used to determine the effects of SFZ analogues on NF-kB activity. Cells were treated with LPS to induce NF-kB activity in the presence or absence of each compound, or DMSO as a solvent control, and luciferase activity analysed as a measure of NF-kB dependent transcription (FIG. 1). […] U937-kBluc cells were treated with LPS to activate NF-kB in the presence of increasing concentrations of SFZ, derivatives (3a-f), or DMSO as a solvent control. For each concentration of compound, the percentage inhibition of luciferase activity relative to cells treated with an equivalent amount of DMSO was calculated. (A) Representative dose response experiment (♦, 3a; ▪, SFZ). Each data point is the mean of triplicate samples (±SEM). (B) Detailed dose response assays were performed for compounds which gave >50% inhibition at 2 mM. The mean IC50 value (±SD) for inhibition of LPS-induced NF-kB activity is derived from 2 independent experiments, each performed in triplicate.

CLL cells = assay: CLL apoptosis by PARP cleavage; type: cell-based, human; conditions: 6 hours; for PARP cleavage in CLL cells compared with SFZ: 0.5 mM, three patient samples
Experimental: CLL apoptosis was quantified by analysing PARP which is cleaved by effector caspases during apoptosis. CLL cells isolated from three individual patients were recovered from storage in liquid nitrogen and cultured at a density of 1.25×10^6 cells in 1 ml of growth medium (RPMI 1640, 10% (v/v) FCS and antibiotics). After 1 hour, […] were treated with compounds. Cells were harvested 6 hours after addition of compound, resuspended in 1×SDS-PAGE sample buffer and sonicated prior to immunoblot analysis for PARP expression as described below. PARP cleavage was quantified by determining the amount of cleaved PARP as a percentage of total PARP expression by digital image analysis.
The ability of SFZ and the analogues to induce CLL apoptosis was analysed. CLL cells from 3 individual patients were treated with SFZ for 6 hours and apoptosis was quantified by analysing PARP cleavage. […] The amount of apoptosis induced by SFZ and compounds 3a and 3f (at 0.5 mM) was compared.
(A) CLL cells from three different patients were cultured in the presence of SFZ or compounds 3a and 3f (all at 0.5 mM), or DMSO as a solvent control. After 6 hours, the degree of PARP cleavage was determined as a measure of apoptosis. […] Note that compound 3f was not tested in cells from patient 3. (B) HSC were cultured in the presence of SFZ (1 mM), compounds 3a (0.150 mM), 3e (0.127 mM), 3f (0.089 mM), or DMSO as a solvent control. Analogues were used at the concentration that gave 50% inhibition of NF-kB transcriptional activity in U937 cells. After 20 hours, the proportion of apoptotic cells were visualised by acridine orange staining. Apoptotic cells were counted in five fields in duplicate for each concentration, in two independent experiments and results expressed as mean ±SEM,

| IC50 (NF-kB) | Compound | effect on TIMP1 promoter activity (TIMP1 promoter) | induction of apoptosis (PARP cleavage) in CLL cells (CLL cells; cells from 3 patients, dose response) | improved inhibitory activity relative to SFZ (NF-kB; NF-kB inhibition, LPS treated U937 cells) | PARP cleavage in CLL cells compared with SFZ (CLL cells) |
| --- | --- | --- | --- | --- | --- |
| 1190 ± 96 µM | O=C(O)c1cc(/N=N/c2ccc(S(=O)(=O)Nc3ccccn3)cc2)ccc1O [SFZ, Sulfasalazine, reference compound] | neither SFZ or the analogues interfered with TIMP1 promoter activity | induced dose dependent apoptosis | – | – |
| 150 ± 27 µM | COc1ccc(CNS(=O)(=O)c2ccc(/N=N/c3ccc(O)c(C(=O)O)c3)cc2)cc1 [Compound 3a, 2-hydroxy-5-[4-(4-methoxy-benzylsulfamoyl)-phenylazo]-benzoic acid] | neither SFZ or the analogues interfered with TIMP1 promoter activity | – | 7 fold | induced more PARP cleavage than SFZ |
| 89 ± 26 µM | O=C(O)c1cc(/N=N/c2ccc(S(=O)(=O)NCc3ccc(C(F)(F)F)cc3)cc2)ccc1O [Compound 3f, 2-hydroxy-5-[4-(4-trifluoromethyl-benzylsulfamoyl)-phenylazo]-benzoic acid] | neither SFZ or the analogues interfered with TIMP1 promoter activity | – | – | induced more PARP cleavage than SFZ |
| 127 ± 19 µM | Cc1cc(/N=N/c2ccc(S(=O)(=O)NCc3ccc(C(F)(F)F)cc3)cc2)cc(C(=O)O)c1O [Compound 3e, 2-hydroxy-3-methyl-5-[4-(4-trifluoromethyl-benzylsulfamoyl)-phenylazo]-benzoic acid] | neither SFZ or the analogues interfered with TIMP1 promoter activity | – | – | – |
